The source of these data is patent US20180064153A1, “Methods of Protecting Against Brain Injury” (priority 2016, published 2018).

Structures are written as SMILES.

The test system of the test is rats exposed to a low-pressure blast wave. As to conditions: 30 days supplementation, 33/49.

`NCCC(=O)O` [BA, beta-alanine]: the “prevalence of well-adapted animals” value is listed as 67%.
